# Laboratory results taken from patent US5234932A, “Substituted quinolines and leucotriene antagonism treatment therewith” (Leo Pharmaceutical Products ltd., priority 1989, dated 1993).
# Where a name gives a salt, the structure may show the parent alone.
# Key:
# [1] = molecular target: T1, LTD4 receptor (Cavia porcellus, UniProt Q2NNR5); test: [3H]LTD4 receptor binding, guinea-pig lung membranes, direct competition assay; settings: negative logarithm of the molar concentration inhibiting [3H]LTD4 binding by 50%
# T1 construct: from tissue; host or cells: guinea-pig lung membranes
# T1 sequence (Q2NNR5 1-340): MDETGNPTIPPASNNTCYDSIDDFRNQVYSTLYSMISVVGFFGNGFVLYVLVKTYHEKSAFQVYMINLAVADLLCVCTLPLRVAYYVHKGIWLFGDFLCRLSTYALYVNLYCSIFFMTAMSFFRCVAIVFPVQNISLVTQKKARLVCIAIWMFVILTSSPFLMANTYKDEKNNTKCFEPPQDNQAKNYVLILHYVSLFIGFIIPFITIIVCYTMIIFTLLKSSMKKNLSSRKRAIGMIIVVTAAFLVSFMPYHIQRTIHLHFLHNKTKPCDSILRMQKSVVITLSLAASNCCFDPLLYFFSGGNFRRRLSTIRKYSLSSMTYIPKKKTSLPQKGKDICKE
# Description: It is of importance to investigate the receptor binding properties of leukotriene antagonists in relation to their pKB values (13), i.e. to correlate antagonist receptor blocking with inhibition of smooth muscle contraction. Receptor binding studies may be performed with guinea-pig lung membranes in a direct competition assay between a leukotriene antagonist and [^3 H]LTD4 for binding to the LTD4 receptor (10,13).
# [2] = molecular target: T2, guinea-pig tracheal strips (LTD4) (Cavia porcellus, UniProt Q2NNR5); test: leukotriene antagonism on guinea-pig tracheal strips (LTD4 concentration-response); format: cell-based; settings: negative logarithm of the antagonist dissociation constant, -log([antagonist]/(dose ratio -1)), indomethacin present
# T2 construct: from tissue; host or cells: guinea-pig tracheal strips
# T2 sequence (Q2NNR5 1-340): T1 sequence (Q2NNR5 1-340)
# Description: Leukotriene antagonists may be further characterized using guinea-pig tracheal strips instead of ileum strips (10). In this relevant in vitro model of human airways (11) tracheal strips are suspended in a physiological buffer containing indomethacin. A concentration-response curve to LTD4 is generated in the presence and absence of the leukotriene antagonists. From these curves the potency of a leukotriene antagonist may be expressed as the pKB value, the negative logarithm of the antagonist dissociation constant. The pKB value is determined as -log([antagonist]/(dose ratio -1)), where the dose ratio is defined as EC50 (presence of antagonist)/EC50 (absence of antagonist) and EC50 refers to the concentration of LTD4 eliciting 50% of the maximum response to LTD4 (12).
# [3] = test system: guinea-pig ileum strips (LTD4); test: inhibition of LTD4-induced contraction of guinea-pig ileum strips; format: cell-based; settings: LTD4 at 10^-9 M; compound added 2 minutes prior; atropine and indomethacin present
# Method: Leukotriene antagonists may be identified by observing the contractions elicited in preparations of guinea-pig ileum strips suspended in a physiological buffer by addition of pure leukotriene D4 (LTD4) (10). The ileum strips are connected to an isotonic transducer, and the contractions are continuously recorded on a multichannel recorder. Before addition of LTD4, atropine and indomethacin are added to the buffer in order to block any cholinergic or prostaglandin mediated contractile effects. Test compounds to be studied with respect to leukotriene antagonism are dissolved in DMSO and added to the organ bath 2 minutes prior to addition of LTD4 at 10^-9 M (final concentration), the final concentration of DMSO being 0.1%, a concentration which can be shown not to affect the ileum response to LTD4. The test compounds may be added at various concentrations, often beginning at […] and then decreasing the concentration in case of antagonism.
# When the compounds of the present invention were added to the ileum preparation before addition of LTD4 a significant inhibition occurred of the specific LTD4 -induced contraction. […] On other hand, contractions induced with histamine at 10^-7 M were not inhibited by these compounds even at micromolar concentrations.
# [4] = molecular target: T3, 5-lipoxygenase (Rattus norvegicus, UniProt P12527); test: 5-lipoxygenase activity in vitro (A23187-stimulated rat peritoneal cells, leukotriene B4 and 5-HETE production); format: cell-based; settings: final concentration of 10^-6 M; A23187 2×10^-6 M
# T3 construct: LTB4 and 5-HETE measured by TLC
# T3 sequence (P12527 1-673): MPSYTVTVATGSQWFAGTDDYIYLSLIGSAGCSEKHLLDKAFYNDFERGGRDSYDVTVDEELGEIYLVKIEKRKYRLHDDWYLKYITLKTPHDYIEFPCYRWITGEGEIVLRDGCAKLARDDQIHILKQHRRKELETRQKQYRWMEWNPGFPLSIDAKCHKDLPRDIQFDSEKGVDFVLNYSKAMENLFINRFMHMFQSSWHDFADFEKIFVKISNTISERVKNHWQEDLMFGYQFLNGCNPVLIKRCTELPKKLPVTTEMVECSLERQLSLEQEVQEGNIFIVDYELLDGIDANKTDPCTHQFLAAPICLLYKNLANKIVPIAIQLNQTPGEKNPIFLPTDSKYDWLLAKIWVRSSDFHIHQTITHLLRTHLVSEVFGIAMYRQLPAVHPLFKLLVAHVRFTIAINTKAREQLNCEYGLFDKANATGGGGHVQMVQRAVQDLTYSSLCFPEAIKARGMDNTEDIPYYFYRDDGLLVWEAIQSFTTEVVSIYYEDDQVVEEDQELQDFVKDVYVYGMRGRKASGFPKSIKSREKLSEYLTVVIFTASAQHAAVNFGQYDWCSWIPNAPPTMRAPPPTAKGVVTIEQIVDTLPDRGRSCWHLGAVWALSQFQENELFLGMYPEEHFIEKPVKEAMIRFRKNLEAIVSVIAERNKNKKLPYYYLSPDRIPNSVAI
# Method: The following method was used to assay 5-lipoxygenase activity in vitro: Rat peritoneal cells were harvested by i.p. injection of 10 ml Hank's balanced salt solution (GIBCO, cat No. 4025, U.S.A.) containing 12.5 U/ml sodium heparin (Leo, Denmark) in anaesthesized rats. The resulting cell suspension, which mainly contained macrophages, was transferred to a test tube and washed twice by centrifugation (200 g, 10 min.) and resuspended in Hank's balanced salt solution containing 0.5% bovine serum albumin (BSA) (Sigma Chem. Co., U.S.A.). The cells from 9 rats were finally resuspended in Hank's balanced salt solution (with BSA) containing 5μCi [1-^14 C]arachidonic acid (The Radiochemical Centre, Amersham, U.K.) and incubated for 90 minutes at 37° C. This caused labelling of cell membrane phospholipids as radioactive arachidonic acid was incorporated in the 2-position of the glycerol moiety. Excess arachidonic acid was then removed by washing the cells twice as described above. The cells were finally resuspended in the same solution (without BSA) at 10^7 cells/ml. 475 μl of the cell suspension was preincubated at 37° C. for 5 minutes with either 5 μl dimethylsalphoxide (DMSO) (control tube), or 5 μl of a drug solution in DMSO. Then 20 μl of a mixture of equal volumes of the calcium ionophore A23187, 10^-4 M in ethanol (Calbiochem, U.S.A.), and 0.4M CaCl2 in water was added. The final concentration of A23187 was thus 2×10^-6 M, and of Ca^++ 8 mM. After 5 minutes of incubation the tubes were transferred to an ice-bath and centrifuged for 10 minutes at 3,000 g (4° C.). An aliquot of the supernatant was counted by liquid scintillation spectrometry in order to calculate the total radioactive release induced by A23187 in presence of drugs. A decrease in radioactive release was taken as indication of phospholipase A2 inhibition. The supernatant was then extracted with ethyl acetate (2 ml), adjusted to pH 3 with 1N HCl and further extracted with 2 ml ethyl acetate. The combined extracts were evaporated to dryness in vacuo, the residue was redissolved in a small volume of methanol and applied by means of a Desaga Autospotter™ to a silica-gel coated thin-layer plate fitted with a polar concentrating zone (Merck Art. 11798, Darmstadt, F.R.G.). The plates were developed in the organic layer of the solvent mixture ethyl acetate/acetic acid/iso-octane/water (55:10:25:50). Radioactive spots were detected by autoradiography (AGFA-GEVAERT, Osray-RPI X-ray film, Belgium), and changes induced by drugs in the metabolic pattern of arachidonic acid were quantified by a laser densitometer (LKB, Ultroscan ™2202, Bromma, Sweden) in combination with an integrating computer (SP 4100, Spectra-Physics, San Jose, Calif., U.S.A.). […]
# [5] = test system: cyclooxygenase; test: synthesis of cyclooxygenase products in A23187-stimulated rat peritoneal cells; format: cell-based; settings: final concentration of 10^-6 M
# Method: The following method was used to assay 5-lipoxygenase activity in vitro: Rat peritoneal cells were harvested by i.p. injection of 10 ml Hank's balanced salt solution (GIBCO, cat No. 4025, U.S.A.) containing 12.5 U/ml sodium heparin (Leo, Denmark) in anaesthesized rats. The resulting cell suspension, which mainly contained macrophages, was transferred to a test tube and washed twice by centrifugation (200 g, 10 min.) and resuspended in Hank's balanced salt solution containing 0.5% bovine serum albumin (BSA) (Sigma Chem. Co., U.S.A.). The cells from 9 rats were finally resuspended in Hank's balanced salt solution (with BSA) containing 5μCi [1-^14 C]arachidonic acid (The Radiochemical Centre, Amersham, U.K.) and incubated for 90 minutes at 37° C. This caused labelling of cell membrane phospholipids as radioactive arachidonic acid was incorporated in the 2-position of the glycerol moiety. Excess arachidonic acid was then removed by washing the cells twice as described above. The cells were finally resuspended in the same solution (without BSA) at 10^7 cells/ml. 475 μl of the cell suspension was preincubated at 37° C. for 5 minutes with either 5 μl dimethylsalphoxide (DMSO) (control tube), or 5 μl of a drug solution in DMSO. Then 20 μl of a mixture of equal volumes of the calcium ionophore A23187, 10^-4 M in ethanol (Calbiochem, U.S.A.), and 0.4M CaCl2 in water was added. The final concentration of A23187 was thus 2×10^-6 M, and of Ca^++ 8 mM. After 5 minutes of incubation the tubes were transferred to an ice-bath and centrifuged for 10 minutes at 3,000 g (4° C.). An aliquot of the supernatant was counted by liquid scintillation spectrometry in order to calculate the total radioactive release induced by A23187 in presence of drugs. A decrease in radioactive release was taken as indication of phospholipase A2 inhibition. The supernatant was then extracted with ethyl acetate (2 ml), adjusted to pH 3 with 1N HCl and further extracted with 2 ml ethyl acetate. The combined extracts were evaporated to dryness in vacuo, the residue was redissolved in a small volume of methanol and applied by means of a Desaga Autospotter™ to a silica-gel coated thin-layer plate fitted with a polar concentrating zone (Merck Art. 11798, Darmstadt, F.R.G.). The plates were developed in the organic layer of the solvent mixture ethyl acetate/acetic acid/iso-octane/water (55:10:25:50). Radioactive spots were detected by autoradiography (AGFA-GEVAERT, Osray-RPI X-ray film, Belgium), and changes induced by drugs in the metabolic pattern of arachidonic acid were quantified by a laser densitometer (LKB, Ultroscan ™2202, Bromma, Sweden) in combination with an integrating computer (SP 4100, Spectra-Physics, San Jose, Calif., U.S.A.).
# These cells produced measurable amounts of radioactive 6-keto-prostaglandinF1α, thromboxane B2, prostaglandin D2, hydroxyheptadecatrienoic acid (HHT) (all cyclooxygenase products), 5-hydroxyeicosatetraenoic acid (5-HETE) and leukotriene B4 (both 5-lipoxygenase products).
# At the same time, a decrease in synthesis of the cyclooxygenase products HHT, prostaglandin D2, thromboxane B2 and 6-ketoprostaglandin F1α was not observed. This pattern of drug activity is indicative of truly specific 5-lipoxygenase inhibition.
SMILES,IC50 [1] [nM],Kb [2] [nM],decrease in the production of 5-HETE [4],decrease in the production of leukotriene B4 [4],concentrations at which inhibition of LTD4-induced contraction occurred [3],decrease in synthesis of the cyclooxygenase product 6-ketoprostaglandin F1α [5],decrease in synthesis of the cyclooxygenase product HHT [5],decrease in synthesis of the cyclooxygenase product prostaglandin D2 [5],decrease in synthesis of the cyclooxygenase product thromboxane B2 [5]
"O=C(O)C(Nc1cccc(OCc2ccc3ccccc3n2)c1)c1ccccc1 (racemic) [Example 15, (S,R)-2-[3-(2-Quinolylmethyloxy)-anilino]-2-phenyl acetic acid]",15.8,1,,,,,,,
"O=C(O)C(Nc1ccc(OCc2ccc3ccccc3n2)cc1)c1ccccc1 (racemic) [Example 17, (S,R)-2-[4-(2-Quinolylmethyloxy)-anilino]-2-phenyl acetic acid]",,,,,submicromolar range,,,,
CCOC(=O)[C@H](O)[C@H](Nc1cccc(OCc2ccc3ccccc3n2)c1)c1cccc(Cl)c1 (relative stereo) [Example 9],,,significant and specific decrease,significant and specific decrease,,not observed,not observed,not observed,not observed

# More lines, main results first:
IC50 [1] [nM],Kb [2] [nM],decrease in the production of 5-HETE [4],decrease in the production of leukotriene B4 [4],SMILES,concentrations at which inhibition of LTD4-induced contraction occurred [3],decrease in synthesis of the cyclooxygenase product 6-ketoprostaglandin F1α [5],decrease in synthesis of the cyclooxygenase product HHT [5],decrease in synthesis of the cyclooxygenase product prostaglandin D2 [5],decrease in synthesis of the cyclooxygenase product thromboxane B2 [5]
2.51,0.2,,,"O=C(O)[C@H](O)[C@H](Nc1cccc(OCc2ccc3ccccc3n2)c1)c1ccccc1 (relative stereo) [Example 1, (2R,3R;2S,3S)-3-[3-(2-Quinolylmethoxy)-anilino]-2-hydroxy-3-phenyl propionic acid, sodium salt]",,,,,
,,significant and specific decrease,significant and specific decrease,"CCOC(=O)[C@H](O)[C@H](Nc1ccc(OCc2ccc3ccccc3n2)cc1)c1ccccc1 (relative stereo) [Example 11, (2S,3R;2S,3S)-3-[4-(2-Quinolylmethyloxy)-anilino]-2-hydroxy-3-phenyl propionic acid ethyl ester]",,not observed,not observed,not observed,not observed
